For 8 compounds, Activity, IC50 and inhibition results are on record in ChEMBL document CHEMBL4414665, “Dynamic Chirality in the Mechanism of Action of Allosteric CD36 Modulators of Macrophage-Driven Inflammation” (J Med Chem, 2019).

The target in assay [1] is Platelet glycoprotein 4 (Mus musculus) (UniProt Q08857). Briefly: Modulation activity at CD36 in mouse J774 cells assessed as promotion of cholesterol efflux at 100 nM pre-incubated for 17 hrs before apolipoprotein A-I addition for 4 hrs by fluorescent-labeled cholesterol kit based assay relative to control. The format is cell-based.
Sequence of Platelet glycoprotein 4 (Mus musculus) (Q08857 whole entry): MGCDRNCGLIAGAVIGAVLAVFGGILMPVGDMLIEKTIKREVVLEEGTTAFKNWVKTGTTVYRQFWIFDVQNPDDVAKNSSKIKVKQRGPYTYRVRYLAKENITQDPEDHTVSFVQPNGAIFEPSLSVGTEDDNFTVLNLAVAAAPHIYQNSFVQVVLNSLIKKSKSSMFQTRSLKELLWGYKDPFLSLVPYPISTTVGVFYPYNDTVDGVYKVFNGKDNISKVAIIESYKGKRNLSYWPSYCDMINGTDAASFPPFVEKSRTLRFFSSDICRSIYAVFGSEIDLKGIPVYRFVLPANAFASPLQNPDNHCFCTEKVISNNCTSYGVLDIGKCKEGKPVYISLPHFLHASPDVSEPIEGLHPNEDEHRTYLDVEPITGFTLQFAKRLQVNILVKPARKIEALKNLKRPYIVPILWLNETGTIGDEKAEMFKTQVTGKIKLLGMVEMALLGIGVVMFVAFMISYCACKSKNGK
Assay [2] has as its target Platelet glycoprotein 4 (Rattus norvegicus) (UniProt Q07969). Briefly: Displacement of photoactivated [125I]-Tyr-Bpa-Ala-hexarelin from CD36 in rat heart purified membranes.
Assay [3] concerns the target Platelet glycoprotein 4 (Mus musculus) (UniProt Q08857). Kind of assay: Modulation activity at CD36 in mouse RAW264.7 cells assessed as inhibition of TLR-2 agonist R-FSL-1-induced NO overproduction relative to control. On the set-up: concentration or dose not given beside the values. The following applies: concentration not given here. It is filed as cell-based.
Assay [4] has as its target Platelet glycoprotein 4 (Rattus norvegicus) (UniProt Q07969). Briefly: Displacement of photoactivated [125I]-Tyr-Bpa-Ala-hexarelin from CD36 in rat heart purified membranes relative to control. The format is cell membranes.

Molecules are shown by their SMILES. Calls of active or inactive are those of the source. The calls are words filed in the database; no cut-off is given here.

Sequence of Platelet glycoprotein 4 (Rattus norvegicus) (Q07969 whole entry): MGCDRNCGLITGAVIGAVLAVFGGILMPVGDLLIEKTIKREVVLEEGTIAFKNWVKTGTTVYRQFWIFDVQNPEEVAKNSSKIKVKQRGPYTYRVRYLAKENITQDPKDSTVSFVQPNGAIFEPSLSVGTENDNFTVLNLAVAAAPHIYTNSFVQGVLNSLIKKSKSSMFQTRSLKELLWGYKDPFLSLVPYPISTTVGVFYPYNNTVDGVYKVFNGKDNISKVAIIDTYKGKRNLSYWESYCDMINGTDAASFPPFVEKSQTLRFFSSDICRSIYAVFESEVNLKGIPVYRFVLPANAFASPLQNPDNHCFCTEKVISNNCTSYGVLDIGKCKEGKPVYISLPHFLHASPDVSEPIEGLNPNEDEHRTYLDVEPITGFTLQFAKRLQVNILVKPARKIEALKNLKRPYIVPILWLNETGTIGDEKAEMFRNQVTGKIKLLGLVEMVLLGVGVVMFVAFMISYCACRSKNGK

Regarding `C=CCN1CC#CCN(NC(=O)[C@H](C)NC(C)=O)C(=O)N[C@H](Cc2c[nH]c3ccccc23)C(=O)N[C@@H](C)C(=O)N[C@@H](Cc2c[nH]c3ccccc23)C(=O)N[C@H](Cc2ccccc2)C(=O)N[C@H](C(N)=O)CCCC1`, the Activity in assay [1] amounted to 17%. In addition, the concentration for half-maximal inhibition (IC50) in assay [2] is 670 nM. For the same compound, the inhibition in assay [3] came to 20%.

Take `C=CCN1CC#CC[C@H](NC(=O)[C@H](C)N)C(=O)N[C@H](Cc2c[nH]c3ccccc23)C(=O)N[C@@H](C)C(=O)N[C@@H](Cc2c[nH]c3ccccc23)C(=O)N[C@H](Cc2ccccc2)C(=O)N[C@H](C(N)=O)CCCC1`: the Activity in assay [1] came to 7%. For the same compound, the IC50 in assay [2] came to 660 nM. In addition, the inhibition in assay [3] was determined as 17%.

In the case of `C=CCN1CC#CCN(N)C(=O)N[C@H](Cc2c[nH]c3ccccc23)C(=O)N[C@@H](C)C(=O)N[C@@H](Cc2c[nH]c3ccccc23)C(=O)N[C@H](Cc2ccccc2)C(=O)N[C@H](C(N)=O)CCCC1`, in assay [3], the inhibition was determined as 18%. Besides, in assay [4], the inhibition result is “inactive”.

For the compound `C=CCN1CC#CC[C@H](NC(=O)[C@H](C)N)C(=O)N[C@@H](C)C(=O)N[C@@H](Cc2c[nH]c3ccccc23)C(=O)N[C@H](Cc2ccccc2)C(=O)N[C@H](C(N)=O)CCCC1`, in assay [1], the Activity came out at 13%. Besides, the IC50 in assay [2] worked out at 1470 nM. Also, the inhibition in assay [3] is 16%.

For `C=CCN1CC#CC[C@@H](NC(=O)[C@H](C)N)C(=O)N[C@H](Cc2c[nH]c3ccccc23)C(=O)N[C@@H](C)C(=O)N[C@@H](Cc2c[nH]c3ccccc23)C(=O)N[C@H](Cc2ccccc2)C(=O)N[C@H](C(N)=O)CCCC1`, the Activity in assay [1] worked out at 6%. In addition, the IC50 in assay [2] was determined as 1040 nM. For the same compound, in assay [3], the inhibition stood at 10%.

As to `C=CCN1CC#CCN(NC(=O)[C@H](C)N)C(=O)N[C@H](Cc2c[nH]c3ccccc23)C(=O)N[C@@H](C)C(=O)N[C@@H](Cc2c[nH]c3ccccc23)C(=O)N[C@H](Cc2ccccc2)C(=O)N[C@H](C(N)=O)CCCC1`, the Activity in assay [1] was determined as 11%. For the same compound, in assay [2], the IC50 came to 80 nM. In addition, the inhibition in assay [3] stood at 45%.

Consider `C=CCN1CC#CC[C@@H](NC(=O)[C@H](C)N)C(=O)N[C@@H](C)C(=O)N[C@@H](Cc2c[nH]c3ccccc23)C(=O)N[C@H](Cc2ccccc2)C(=O)N[C@H](C(N)=O)CCCC1`, for which the Activity in assay [1] turned out to be 6%. Moreover, the IC50 in assay [2] came out at 3320 nM. Further, the inhibition in assay [3] was 9%.

Take `C=CCN1CC#CCN(NC(=O)[C@H](C)N)C(=O)N[C@@H](C)C(=O)N[C@@H](Cc2c[nH]c3ccccc23)C(=O)N[C@H](Cc2ccccc2)C(=O)N[C@H](C(N)=O)CCCC1`: the Activity in assay [1] came to 6%. In addition, the half-maximal inhibitory concentration (IC50) in assay [2] stood at 240 nM. Moreover, the inhibition in assay [3] came out at 29%.
